Publication PMC7238120, “Strong and Selective Inhibitory Effects of the Biflavonoid Selamariscina A against CYP2C8 and CYP2C9 Enzyme Activities in Human Liver Microsomes” (Pharmaceutics, 2020)

Experiments:
[1] = target: T1, UGT1A1 (Homo sapiens, UniProt P22309); design: method as in PMID 29470958; details: read-out: IC50, UGT1A1, previously reported value; cited from earlier work
T1 sequence (P22309 26-533): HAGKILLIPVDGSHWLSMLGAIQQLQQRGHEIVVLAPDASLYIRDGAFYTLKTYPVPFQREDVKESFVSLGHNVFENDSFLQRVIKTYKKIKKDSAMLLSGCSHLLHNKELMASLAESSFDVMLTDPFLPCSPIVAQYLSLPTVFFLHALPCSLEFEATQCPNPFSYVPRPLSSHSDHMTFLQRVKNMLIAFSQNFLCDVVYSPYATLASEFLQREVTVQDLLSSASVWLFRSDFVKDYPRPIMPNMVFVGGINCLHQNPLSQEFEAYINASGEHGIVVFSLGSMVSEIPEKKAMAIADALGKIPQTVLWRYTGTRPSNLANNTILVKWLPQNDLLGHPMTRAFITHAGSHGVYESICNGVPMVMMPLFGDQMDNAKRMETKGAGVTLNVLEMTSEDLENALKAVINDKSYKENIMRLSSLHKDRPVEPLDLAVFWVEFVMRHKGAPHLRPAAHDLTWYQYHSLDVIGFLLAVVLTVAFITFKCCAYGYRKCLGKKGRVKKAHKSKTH

[2] = target: T2, UGT1A9 (Homo sapiens, UniProt O60656); assay: Inhibition of UGT1A9 (mycophenolic acid glucuronidation) in human liver microsomes; type: in vitro ADME; details: substrate mycophenolic acid; HLMs; average ± standard error
T2 construct: tissue XenoTech XTreme 200; host or cells: pooled human liver microsomes
Method: (§1) The ability of selamariscina A to inhibit the metabolism of six UGT enzyme probe substrates was evaluated using previously developed methods with minor modifications. The microsomal incubation was performed by dividing the non-interactive substrate cocktail sets (set A included SN-38 for UGT1A1, CDCA for UGT1A3 and TFP for UGT1A4 while set B included N-SER for UGT1A6, MPA for UGT1A9 and NX for UGT2B7) (Table 2). In brief, HLMs (0.25 mg/mL) were activated by incubation in the presence of alamethicin (25 µg/mL) for 15 min on ice. After the addition of UGT probe substrates and inhibitor (0, 0.5, 2, 5, 20 and 50 μM), the incubation mixtures were pre-incubated at 37 °C for 5 min. […] After centrifugation at 18,000 g (5 min, 4 °C), aliquots of supernatants were analyzed by LC–MS/MS. […]
(§2) All metabolites and the IS were separated on a Kinetex XB-C18 column (100 × 2.10 mm, 2.6 μm, 100 Å; Phenomenex, Torrance, CA, USA) and analyzed using a Shimadzu LCMS 8060 triple-quadrupole mass spectrometer coupled with a Nexera X2 ultra high-performance liquid chromatography system (Shimadzu, Kyoto, Japan) equipped with an electrospray ionization interface. […] Quantitation was conducted in selected reaction monitoring (SRM) modes with the precursor-to-product ion transition for each metabolite (Table 1 and Table 2).
(§3) We analyzed the data with Shimadzu LabSolution LC–MS software. […]

[3] = target: T3, UGT2B7 (Homo sapiens, UniProt P16662); assay: Inhibition of UGT2B7 (naloxone glucuronidation) in human liver microsomes; type: in vitro ADME; details: substrate naloxone; HLMs
T3 construct: tissue XenoTech XTreme 200; host or cells: pooled human liver microsomes
Method: as §1, §2, §3

[4] = target: CYP2C9 (Homo sapiens, UniProt P11712); assay: Inhibition of CYP2C9-catalyzed tolbutamide 4-hydroxylation in human liver microsomes; type: in vitro ADME; design: incubation mixtures containing pooled human liver microsomes (HLMs, XTreme 200, XenoTech); tissue XenoTech XTreme 200; host or cells: pooled human liver microsomes; details: HLMs
Excerpt: We used HLMs to determine the mechanisms and constants (Ki values) for […] A inhibition of CYP1A2, CYP2B6, CYP2C8, CYP2C9 and CYP3A. […] The substrates were used at concentrations approximately near to their respective Km values. […] The other conditions were the same as in the cytochrome P450 inhibition study. […] Phenomenex, Torrance, CA, USA) and analyzed using a Shimadzu LCMS 8060 triple-quadrupole mass spectrometer coupled with a Nexera X2 ultra high-performance liquid chromatography system (Shimadzu, Kyoto, Japan) equipped with an electrospray ionization interface. The mobile phase consisted of 0.1% formic acid in water (A) and 0.1% formic acid in acetonitrile (B). […] The flow rate was 0.2 mL/min. Electrospray ionization was performed in positive-ion mode at 4000 V or in negative-ion mode at -3500 V. The optimum operating conditions were determined as follows: vaporizer temperature, 300 °C; capillary temperature, 350 °C; collision gas (argon) pressure, 1.5 mTorr. Quantitation was conducted in selected reaction monitoring (SRM) modes with the precursor-to-product ion transition for each metabolite (Table 1 and Table 2). We analyzed the data with Shimadzu LabSolution LC-MS software. The IC50 values were calculated by WinNonlin software (Pharsight, Mountain View, CA, USA). […]

T3 sequence (P16662 24-529): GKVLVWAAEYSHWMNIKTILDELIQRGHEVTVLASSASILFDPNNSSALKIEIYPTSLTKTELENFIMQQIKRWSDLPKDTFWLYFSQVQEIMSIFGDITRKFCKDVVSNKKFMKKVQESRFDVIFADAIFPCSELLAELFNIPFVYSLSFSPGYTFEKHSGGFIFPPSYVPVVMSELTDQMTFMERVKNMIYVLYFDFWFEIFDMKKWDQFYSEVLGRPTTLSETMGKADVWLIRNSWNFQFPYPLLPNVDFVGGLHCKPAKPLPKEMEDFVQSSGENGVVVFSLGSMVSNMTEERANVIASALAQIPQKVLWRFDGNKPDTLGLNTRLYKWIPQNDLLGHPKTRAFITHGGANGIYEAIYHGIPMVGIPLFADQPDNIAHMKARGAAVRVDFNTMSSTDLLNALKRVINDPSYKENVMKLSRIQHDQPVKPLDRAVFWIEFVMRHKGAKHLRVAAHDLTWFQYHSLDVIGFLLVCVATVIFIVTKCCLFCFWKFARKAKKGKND
CYP2C9, sequence (P11712 whole entry): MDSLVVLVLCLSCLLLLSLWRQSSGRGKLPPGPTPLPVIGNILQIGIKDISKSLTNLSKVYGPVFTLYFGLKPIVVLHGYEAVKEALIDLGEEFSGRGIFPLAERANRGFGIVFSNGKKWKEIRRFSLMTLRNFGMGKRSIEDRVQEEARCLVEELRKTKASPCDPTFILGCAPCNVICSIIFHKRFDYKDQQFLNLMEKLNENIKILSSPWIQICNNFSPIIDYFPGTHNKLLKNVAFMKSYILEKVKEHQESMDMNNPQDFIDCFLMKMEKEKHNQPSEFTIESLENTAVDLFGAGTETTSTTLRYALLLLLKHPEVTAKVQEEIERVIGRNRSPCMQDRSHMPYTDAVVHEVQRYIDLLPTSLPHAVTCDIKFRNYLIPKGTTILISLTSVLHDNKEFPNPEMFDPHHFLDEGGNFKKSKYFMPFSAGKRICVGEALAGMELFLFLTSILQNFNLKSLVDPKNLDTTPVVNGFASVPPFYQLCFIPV
T2 sequence (O60656 26-530): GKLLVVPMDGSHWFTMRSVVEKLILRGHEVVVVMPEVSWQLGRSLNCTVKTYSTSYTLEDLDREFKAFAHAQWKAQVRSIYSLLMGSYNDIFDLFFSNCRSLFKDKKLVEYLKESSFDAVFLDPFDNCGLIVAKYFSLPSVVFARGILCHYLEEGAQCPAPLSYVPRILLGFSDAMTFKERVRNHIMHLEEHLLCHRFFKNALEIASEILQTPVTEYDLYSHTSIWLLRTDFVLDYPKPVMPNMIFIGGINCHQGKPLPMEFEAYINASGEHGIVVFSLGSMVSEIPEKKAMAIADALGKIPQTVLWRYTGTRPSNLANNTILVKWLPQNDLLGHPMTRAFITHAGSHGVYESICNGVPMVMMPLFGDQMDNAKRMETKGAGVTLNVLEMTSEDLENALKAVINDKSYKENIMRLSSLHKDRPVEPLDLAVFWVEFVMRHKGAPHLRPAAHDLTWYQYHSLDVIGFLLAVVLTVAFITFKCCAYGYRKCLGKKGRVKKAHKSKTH

| IC50 [2] | IC50 [3] | Mode of Inhibition, CYP2C9 tolbutamide [4] | Ki ([4]; average ± standard error, triplicate) | SMILES | IC50 [1] |
| --- | --- | --- | --- | --- | --- |
| – | – | – | – | O=c1cc(-c2ccc(O)c(-c3c(O)cc(O)c4c(=O)cc(-c5ccc(O)cc5)oc34)c2)oc2cc(O)cc(O)c12 [amentoflavone] | 0.78 µM |
| 40.4 ± 11.1 µM | > 50 µM | Noncompetitive | 0.065 ± 0.01 µM | O=C1CC(c2cc(-c3c(O)ccc4c(=O)cc(-c5ccc(O)cc5)oc34)c(O)cc2O)Oc2cc(O)cc(O)c21 (centres unmarked) [selamariscina A] | – |
